Laboratory results from the NIST ThermoML archive (doi:10.1016/j.tca.2004.11.022).

Tests used:
[1] = xn = mol fraction of the nth substance listed; details: 101 kPa, Liquid; for mass density: Vibrating tube method; for speed of sound: Pulse-echo method
[2] = molar heat capacity at constant pressure; xn = mol fraction of the nth substance listed; details: 101 kPa, Liquid, Small sample (50 mg) DSC

CCCCCCCCC [nonane] + COC(=O)OC
Details	mass density [kg/m3]	molar heat capacity at constant pressure [J/K/mol]	speed of sound [m/s]
[1], 288.15 K, x2 = 0.05335	729.39	–	–
[1], 288.15 K, x2 = 0.1009	736.94	–	–
[1], 288.15 K, x2 = 0.1998	754.47	–	–
[1], 288.15 K, x2 = 0.2963	774.22	–	–
[1], 288.15 K, x2 = 0.3965	798.13	–	–
[1], 288.15 K, x2 = 0.4978	826.3	–	–
[1], 288.15 K, x2 = 0.5983	859.19	–	–
[1], 288.15 K, x2 = 0.6976	897.72	–	–
[1], 288.15 K, x2 = 0.7982	944.58	–	–
[1], 288.15 K, x2 = 0.8985	1002.3	–	–
[1], 293.15 K, x2 = 0.05335	725.45	–	–
[1], 293.15 K, x2 = 0.1009	732.86	–	–
[1], 293.15 K, x2 = 0.1998	750.26	–	–
[1], 293.15 K, x2 = 0.2963	769.82	–	–
[1], 293.15 K, x2 = 0.3965	793.41	–	–
[1], 293.15 K, x2 = 0.4978	821.39	–	–
[1], 293.15 K, x2 = 0.5983	853.92	–	–
[1], 293.15 K, x2 = 0.6976	892.23	–	–
[1], 293.15 K, x2 = 0.7982	938.72	–	–
[1], 293.15 K, x2 = 0.8985	996.2	–	–
[1], 298.15 K, x2 = 0.05335	721.48	–	1198.5
[1], 298.15 K, x2 = 0.1009	728.79	–	1191.8
[1], 298.15 K, x2 = 0.1998	746.03	–	1180
[1], 298.15 K, x2 = 0.2963	765.4	–	1170.5
[1], 298.15 K, x2 = 0.3965	788.73	–	1162.4
[1], 298.15 K, x2 = 0.4978	816.45	–	1156.8
[1], 298.15 K, x2 = 0.5983	848.67	–	1153.4
[1], 298.15 K, x2 = 0.6976	886.73	–	1153.5
[1], 298.15 K, x2 = 0.7982	932.9	–	1158.2
[1], 298.15 K, x2 = 0.8985	990.1	–	1171.2
[1], 308.15 K, x2 = 0.05335	713.45	–	–
[1], 308.15 K, x2 = 0.1009	720.68	–	–
[1], 308.15 K, x2 = 0.1998	737.48	–	–
[1], 308.15 K, x2 = 0.2963	756.46	–	–
[1], 308.15 K, x2 = 0.3965	779.36	–	–
[1], 308.15 K, x2 = 0.4978	806.49	–	–
[1], 308.15 K, x2 = 0.5983	838.24	–	–
[1], 308.15 K, x2 = 0.6976	875.62	–	–
[1], 308.15 K, x2 = 0.7982	921.26	–	–
[1], 308.15 K, x2 = 0.8985	977.7	–	–
[2], 288.15 K, x2 = 0.05262	–	273.59	–
[2], 288.15 K, x2 = 0.1012	–	267.97	–
[2], 288.15 K, x2 = 0.1514	–	262.27	–
[2], 288.15 K, x2 = 0.2001	–	256.97	–
[2], 288.15 K, x2 = 0.297	–	247.1	–
[2], 288.15 K, x2 = 0.4018	–	237.24	–
[2], 288.15 K, x2 = 0.452	–	232.75	–
[2], 288.15 K, x2 = 0.5014	–	228.4	–
[2], 288.15 K, x2 = 0.5514	–	223.85	–
[2], 288.15 K, x2 = 0.6024	–	218.72	–
[2], 288.15 K, x2 = 0.6477	–	213.45	–
[2], 288.15 K, x2 = 0.6978	–	206.69	–
[2], 288.15 K, x2 = 0.7944	–	191.68	–
[2], 288.15 K, x2 = 0.845	–	183.74	–
[2], 288.15 K, x2 = 0.9016	–	175.65	–
[2], 288.15 K, x2 = 0.9486	–	169.8	–
[2], 298.15 K, x2 = 0.05262	–	277.51	–
[2], 298.15 K, x2 = 0.1012	–	271.68	–
[2], 298.15 K, x2 = 0.1514	–	265.73	–
[2], 298.15 K, x2 = 0.2001	–	260.11	–
[2], 298.15 K, x2 = 0.297	–	249.53	–
[2], 298.15 K, x2 = 0.4018	–	238.51	–
[2], 298.15 K, x2 = 0.452	–	233.42	–
[2], 298.15 K, x2 = 0.5014	–	228.22	–
[2], 298.15 K, x2 = 0.5514	–	222.78	–
[2], 298.15 K, x2 = 0.6024	–	217.1	–
[2], 298.15 K, x2 = 0.6477	–	211.64	–
[2], 298.15 K, x2 = 0.6978	–	205.13	–
[2], 298.15 K, x2 = 0.7944	–	191.78	–
[2], 298.15 K, x2 = 0.845	–	184.48	–
[2], 298.15 K, x2 = 0.9016	–	176.75	–
[2], 298.15 K, x2 = 0.9486	–	170.87	–
[2], 308.15 K, x2 = 0.05262	–	281.91	–
[2], 308.15 K, x2 = 0.1012	–	275.81	–
[2], 308.15 K, x2 = 0.1514	–	269.66	–
[2], 308.15 K, x2 = 0.2001	–	263.87	–
[2], 308.15 K, x2 = 0.297	–	252.77	–
[2], 308.15 K, x2 = 0.4018	–	241.06	–
[2], 308.15 K, x2 = 0.452	–	235.55	–
[2], 308.15 K, x2 = 0.5014	–	230.02	–
[2], 308.15 K, x2 = 0.5514	–	224.27	–
[2], 308.15 K, x2 = 0.6024	–	218.19	–
[2], 308.15 K, x2 = 0.6477	–	212.66	–
[2], 308.15 K, x2 = 0.6978	–	206.01	–
[2], 308.15 K, x2 = 0.7944	–	192.97	–
[2], 308.15 K, x2 = 0.845	–	185.93	–
[2], 308.15 K, x2 = 0.9016	–	178.33	–
[2], 308.15 K, x2 = 0.9486	–	172.4	–
